According to patent publication US20230094076A1, “COMBINATION THERAPY” (GlaxoSmithKline Intellectual Property Development Limited, priority 2016, published 2023):

Test system: AML cell lines
Assay: Preliminary RNA-seq studies
Type: cell-based
Conditions: chemokines, cytokines, interferons, interleukins
Text: PRMT1 has been implicated in immune regulation through modulation of the TLR receptor signaling pathway, whereby PRMT1 knock-down results in increased expression of pro-inflammatory molecules (Tikhanovich, I. et al. Dynamic Arginine Methylation of Tumor Necrosis Factor (TNF) Receptor-associated Factor 6 Regulates Toll-like Receptor Signaling. J Biol Chem 290, 22236-22249, doi:10.1074.jbc.M115.653543 (2015)).

CNCCN(C)Cc1c[nH]nc1[C@H]1CC[C@@]2(CC1)CC(C)(C)CO2 [Compound D]
expression of immune response gene families: altered expression
